Measurements from patent publication US8722665B2, “Cinnamido-pyrrolo[2,1-C][1,4]benzodiazepines as potential anticancer agents and process for the preparation thereof” (Council of Scientific & Industrial Research, priority 2008, dated 2014).

Tested on: duplex-form calf thymus DNA (CT-DNA)
Experiment: Thermal denaturation studies with calf thymus DNA
Type: binding
Conditions: [PBD]:[DNA] molar ratio 1:5, CT-DNA 100 μM, ligand 20 μM, pH 7.00; for (ΔTm ° C.) after incubation at 37° C. for 0 h: 0 h incubation at 37° C.; for (ΔTm ° C.) after incubation at 37° C. for 18 h: 18 h incubation at 37° C.
Description: Compounds have been subjected to thermal denaturation studies with duplex-form calf thymus DNA (CT-DNA) using an modification of a reported procedure (Newman, M. S. Carcinog-compr. Surv. 1976, 1, 203; (b) Hecht, S. S.; Loy, M.; Hoffman, Carcinog-compr. Surv. 1976, 1, 325). Working solutions in aqueous buffer (10 mM NaH2PO4/Na2HPO4, 1 mM Na2EDTA, pH 7.00+0.01) containing CT-DNA (100 μm in phosphate) and the PBD (20 μm) have been prepared by addition of concentrated PBD solutions in DMSO to obtain a fixed [PBD]/[DNA] molar ratio of 1:5. The DNA-PBD solutions have been incubated at 37° C. for 0 and 18 h prior to analysis. Samples have been monitored at 260 nm using a Beckman DU-800 spectrophotometer fitted with high performance temperature controller, and heated at 1° C. min^−1 in the 40-110° C. range. DNA helix→coil transition temperatures (Tm) have been obtained from the maxima in the d(A260)/dT derivative plots. Drug-induced alterations in DNA melting behavior are given by: ΔTm=Tm(DNA+PBD)−Tm(DNA alone), where the Tm value for the PBD-free CT-DNA is 69.1±0.01.
The DNA binding activity for these Cinnamido-pyrrolo[2,1-c][1,4]benzodiazepines have been examined by thermal denaturation studies using calf thymus (CT) DNA. […] The data for the compounds 8b&d, 11b&d, 14b&d and 17b&d is included in Table 1 for comparison.

Compound | (ΔTm ° C.) after incubation at 37° C. for 0 h [°C] | (ΔTm ° C.) after incubation at 37° C. for 18 h [°C]
1,1′-{[(E-3-bis pentyloxy-3-methoxy phenyl)-1-4-piperzino]-2-propene-1-one]dioxy}bis(11aS)-7-methoxy-1,2,3,11a-tetrahydro-5H-pyrrolo[2,1-c][1,4]benzo diazepine-5-one [17d] | 8.1 | 9.2
1,1′-{[(E-3-bis propoxy-3-methoxy phenyl)-1-4-piperzino]-2-propene-1-one}dioxy}bis(11aS)-7-methoxy-1,2,3,11a-tetrahydro-5H-pyrrolo[2,1-c][1,4]benzo diazepine-5-one [17b] | 4.0 | 5.1
COc1cc(/C=C/C(=O)N2CCN(C(=O)c3cc(OC)c(OC)c(OC)c3)CC2)ccc1OCCCCCOc1cc2c(cc1OC)C(=O)N1CCC[C@H]1C=N2 [8d, 7-methoxy-8-{5-(2-methoxy-4-(E)-3-oxo-3-[4-(3,4,5-trimethoxybenzoyl)piperazino]-1-propenylphenoxy)pentyloxy}-(11aS)-2,3,5,11^a-tetrahydro-5H-pyrrolo[2,1-c][1,4]benzo-diazepine-5-one] | 1.5 | 2.5
COc1cc(/C=C/C(=O)N2CCN(C)CC2)ccc1OCCCOc1cc2c(cc1OC)C(=O)N1CCC[C@H]1C=N2 [11b, 7-methoxy-8-(3-2-methoxy-4-[(E)-3-(4-methylpiperazino)-3-oxo-1-propenyl-phenoxy]propoxy)-(11aS)-2,3,5,11^a-tetrahydro-5H-pyrrolo[2,1-c][1,4]benzodiazepine-5-one] | 4.0 | 5.0
COc1cc(/C=C/C(=O)N2CCN(C)CC2)ccc1OCCCCCOc1cc2c(cc1OC)C(=O)N1CCC[C@H]1C=N2 [11d, 7-methoxy-8-(5-2-methoxy-4-[(E)-3-(4-methylpiperazino)-3-oxo-1-propenyl-phenoxy]pentyloxy)-(11aS)-2,3,5,11^a-tetrahydro-5H-pyrrolo[2,1-c][1,4]benzodiazepine-5-one] | 7.9 | 8.8
COc1cc(/C=C/C(=O)N2CCOCC2)ccc1OCCCOc1cc2c(cc1OC)C(=O)N1CCC[C@H]1C=N2 [14b, 7-methoxy-8-(3-2-methoxy-4-[(E)-3-morpholino-3-oxo-1-propenylphenoxy]propoxy)-(11aS)-2,3,5,11^a-tetrahydro-5H-pyrrolo[2,1-c][1,4]benzodiazepine-5-one] | 3.0 | 4.2
COc1cc(/C=C/C(=O)N2CCOCC2)ccc1OCCCCCOc1cc2c(cc1OC)C(=O)N1CCC[C@H]1C=N2 [14d, 7-methoxy-8-(5-2-methoxy-4-[(E)-3-morpholino-3-oxo-1-propenylphenoxy]pentyloxy)-(11aS)-2,3,5,11^a-tetrahydro-5H-pyrrolo[2,1-c][1,4]benzodiazepine-5-one] | 7.1 | 8.2
COc1cc2c(cc1O)N=CC1CCCN1C2=O (stereo not shown) [DC-81, reference compound] | 0.3 | 0.7
